Values quoted from earlier work as cited in patent US20060155301A1, “Methods and devices usable in eye surgery” (priority 2002, published 2006).
Like-named read-outs stand apart in the source and are kept apart here.

B1: trypsin (protein, UniProt P00760 24-246, looked up)
Serine protease 1: IVGGYTCGANTVPYQVSLNSGYHFCGGSLINSQWVVSAAHCYKSGIQVRLGEDNINVVEGNEQFISASKSIVHPSYNSNTLNNDIMLIKLKSAASLNSRVASISLPTSCASAGTQCLISGWGNTKSSGTSYPDVLKCLKAPILSDSSCKSAYPGQITSNMFCAGYLEGGKDSCQGDSGGPVVCSGKLQGIVSWGSGCAQKNKPGVYTKVCNYVSWIKQTIASN
notes: enzyme evaluated for separation of lens epithelial cells

Assays:
lens epithelial cells [1] = details: in vitro
lens epithelial cells [2] = details: EDTA solution in irrigation solution, cadaver eyes
lens epithelial cells [3] = details: 2% trypsin solution in irrigation solution, cadaver eyes

Molecule | inhibiting lens epithelial cells proliferation (lens epithelial cells [1]) | other results
O=c1[nH]cc(F)c(=O)[nH]1 [5 fluorouracil] | effective | –
O=C(O)CN(CCN(CC(=O)O)CC(=O)O)CC(=O)O [EDTA, Ethylenediamine tetraacetic acid] | – | separation of lens epithelial cells (lens epithelial cells [2]): the anterior lens epithelial cells could be separated
COc1cc2c(c(OC)c1OC)-c1ccc(OC)c(=O)cc1[C@@H](NC(C)=O)CC2 [colchicines] | effective | –
COc1cccc2c1C(=O)c1c(O)c3c(c(O)c1C2=O)C[C@@](O)(C(C)=O)C[C@@H]3O[C@H]1C[C@H](N)[C@H](O)[C@H](C)O1 [daunomycin/daunorubicin] | effective | –
COc1cccc2c1C(=O)c1c(O)c3c(c(O)c1C2=O)C[C@@](O)(C(=O)CO)C[C@@H]3O[C@H]1C[C@H](N)[C@H](O)[C@H](C)O1 [doxorubicin] | effective | –
CN(Cc1cnc2nc(N)nc(N)c2n1)c1ccc(C(=O)N[C@@H](CCC(=O)O)C(=O)O)cc1 [methotrexate] | effective | –
CO[C@@]12[C@H](COC(N)=O)C3=C(C(=O)C(C)=C(N)C3=O)N1C[C@@H]1N[C@@H]12 [mitomycin] | effective | –
CC(=O)O[C@H]1C(=O)[C@@]2(C)[C@H]([C@H](OC(=O)c3ccccc3)[C@]3(O)C[C@H](OC(=O)[C@H](O)[C@@H](NC(=O)c4ccccc4)c4ccccc4)C(C)=C1C3(C)C)[C@]1(OC(C)=O)CO[C@@H]1C[C@@H]2O [taxol] | effective | –
B1 | – | damage to the zonules (lens epithelial cells [3]): the zonules were damaged; separation of lens epithelial cells (lens epithelial cells [3]): lens epithelial cells were stripped in places
